Measured values as given in US20230192705A1, “SHP2 INHIBITORS, COMPOSITIONS AND USES THEREOF” (Betta Pharmaceuticals Co., Ltd, priority 2020, published 2023).

The compounds below were run against T1, SHP2 (Homo sapiens, UniProt Q06124) (assay: SHP2 allosteric inhibitor enzyme activity assay (DiFMUP fluorescence)). Conditions: class symbols.
T1 sequence (Q06124 1-593): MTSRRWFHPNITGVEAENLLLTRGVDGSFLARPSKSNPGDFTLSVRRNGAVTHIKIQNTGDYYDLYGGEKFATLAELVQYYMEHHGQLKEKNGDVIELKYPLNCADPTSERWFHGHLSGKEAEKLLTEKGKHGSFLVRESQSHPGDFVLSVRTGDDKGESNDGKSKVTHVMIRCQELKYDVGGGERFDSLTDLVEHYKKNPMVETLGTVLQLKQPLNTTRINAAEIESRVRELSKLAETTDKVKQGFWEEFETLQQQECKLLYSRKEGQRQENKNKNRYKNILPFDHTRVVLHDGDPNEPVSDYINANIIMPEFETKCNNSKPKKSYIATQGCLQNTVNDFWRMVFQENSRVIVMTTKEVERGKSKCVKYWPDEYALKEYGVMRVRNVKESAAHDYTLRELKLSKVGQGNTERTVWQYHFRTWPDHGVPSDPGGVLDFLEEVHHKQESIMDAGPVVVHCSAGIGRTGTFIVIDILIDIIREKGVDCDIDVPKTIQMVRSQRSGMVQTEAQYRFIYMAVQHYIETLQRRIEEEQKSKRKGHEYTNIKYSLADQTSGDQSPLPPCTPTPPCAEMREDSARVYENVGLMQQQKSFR
Format: biochemical
Procedure, shortened: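 SHP2 activated by 0.5 μM IRS1_pY1172(dPEG8)pY1222 peptide, 0.2 ng enzyme per well, 1 h at room temperature with compound (1 μM top, 3-fold series), then DiFMUP substrate 1 h. Buffer: 60 mM HEPES, 75 mM NaCl, 75 mM KCl, 0.05% BRIJ-35, 1 mM EDTA, 5 mM DTT. Fluorescence ex 340/em 450 nm; IC50 by variable-slope fit.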

Compared with `C[C@@H]1OCC2(CCN(c3nc4[nH]nc(C5(c6cccs6)CC5)c4c(=O)[nH]3)CC2)[C@@H]1N` [Example 278, 6-((3S,4S)-4-amino-3-methyl-2-oxa-8-azaspiro[4.5]decan-8-yl)-3-(1-(thiophen-2-yl)cyclopropyl)-1,5-dihydro-4H-pyrazolo[3,4-d]pyrimidin-4-one], `C[C@@H]1OCC2(CCN(c3nc4[nH]nc(C5(c6nncs6)CC5)c4c(=O)[nH]3)CC2)[C@@H]1N` [Example 280, 3-(1-(1,3,4-thiadiazol-2-yl)cyclopropyl)-6-((3S,4S)-4-amino-3-methyl-2-oxa-8-azaspiro[4.5]decan-8-yl)-1,5-dihydro-4H-pyrazolo[3,4-d]pyrimidin-4-one] is higher in IC50: 0.02 to 0.06 µM for the first, over 0.06 µM for the second. The first is the more potent here.

`C[C@@H]1OCC2(CCN(c3nc4[nH]nc(C5(c6ncco6)CC5)c4c(=O)[nH]3)CC2)[C@@H]1N` [Example 279, 6-((3S,4S)-4-amino-3-methyl-2-oxa-8-azaspiro[4.5]decan-8-yl)-3-(1-(oxazol-2-yl)cyclopropyl)-1,5-dihydro-4H-pyrazolo[3,4-d]pyrimidin-4-one] and `C[C@@H]1OCC2(CCN(c3nc4[nH]nc(C5(c6ccnc(N)c6Cl)CC5)c4c(=O)[nH]3)CC2)[C@@H]1N` [Example 291, 3-(1-(2-amino-3-chloropyridin-4-yl)cyclopropyl)-6-((3S,4S)-4-amino-3-methyl-2-oxa-8-azaspiro[4.5]decan-8-yl)-1,5-dihydro-4H-pyrazolo[3,4-d]pyrimidin-4-one] fall in the same range of IC50: 0.02 to 0.06 µM for the first, 0.02 to 0.06 µM for the second.

`N[C@@H]1COCC12CCN(c1nc3[nH]nc(C4(c5nc6ccccc6o5)CC4)c3c(=O)[nH]1)CC2` [Example 282, (S)-6-(4-amino-2-oxa-8-azaspiro[4.5]decan-8-yl)-3-(1-(benzo[d]oxazol-2-yl)cyclopropyl)-1,5-dihydro-4H-pyrazolo[3,4-d]pyrimidin-4-one] and `C[C@@H]1OCC2(CCN(c3nc4[nH]nc(C5(c6nc7ccccc7o6)CC5)c4c(=O)[nH]3)CC2)[C@@H]1N` [Example 284, 6-((3S,4S)-4-amino-3-methyl-2-oxa-8-azaspiro[4.5]decan-8-yl)-3-(1-(benzo[d]oxazol-2-yl)cyclopropyl)-1,5-dihydro-4H-pyrazolo[3,4-d]pyrimidin-4-one] fall in the same range of IC50: 0.02 to 0.06 µM for the first, 0.02 to 0.06 µM for the second.

`N[C@@H]1COCC12CCN(c1nc3[nH]nc(C4(c5nc6ccccc6[nH]5)CC4)c3c(=O)[nH]1)CC2` [Example 283, (S)-3-(1-(1H-benzo[d]imidazol-2-yl)cyclopropyl)-6-(4-amino-2-oxa-8-azaspiro[4.5]decan-8-yl)-1,5-dihydro-4H-pyrazolo[3,4-d]pyrimidin-4-one] and `C[C@@H]1OCC2(CCN(c3nc4[nH]nc(C5(c6cc7ccccc7[nH]6)CC5)c4c(=O)[nH]3)CC2)[C@@H]1N` [Example 285, 3-(1-(1H-indol-2-yl)cyclopropyl)-6-((3S,4S)-4-amino-3-methyl-2-oxa-8-azaspiro[4.5]decan-8-yl)-1,5-dihydro-4H-pyrazolo[3,4-d]pyrimidin-4-one] cannot be ordered by IC50: over 0.06 µM for the first, over 0.06 µM for the second.

`C[C@@H]1OCC2(CCN(c3nc4[nH]nc(C5(c6ccc7c(c6)OCO7)CC5)c4c(=O)[nH]3)CC2)[C@@H]1N` [Example 286, 6-((3S,4S)-4-amino-3-methyl-2-oxa-8-azaspiro[4.5]decan-8-yl)-3-(1-(benzo[d][1,3]dioxol-5-yl)cyclopropyl)-1,5-dihydro-4H-pyrazolo[3,4-d]pyrimidin-4-one] and `C[C@@H]1OCC2(CCN(c3nc4[nH]nc(C5(c6ccc(F)c(F)c6)CC5)c4c(=O)[nH]3)CC2)[C@@H]1N` [Example 295, 6-((3S,4S)-4-amino-3-methyl-2-oxa-8-azaspiro[4.5]decan-8-yl)-3-(1-(3,4-difluorophenyl)cyclopropyl)-1,5-dihydro-4H-pyrazolo[3,4-d]pyrimidin-4-one] fall in the same range of IC50: 0.02 to 0.06 µM for the first, 0.02 to 0.06 µM for the second.

`C[C@@H]1OCC2(CCN(c3nc4[nH]nc(C5(c6ccc7ocnc7c6)CC5)c4c(=O)[nH]3)CC2)[C@@H]1N` [Example 287, 6-((3S,4S)-4-amino-3-methyl-2-oxa-8-azaspiro[4.5]decan-8-yl)-3-(1-(benzo[d]oxazol-5-yl)cyclopropyl)-1,5-dihydro-4H-pyrazolo[3,4-d]pyrimidin-4-one] and `C[C@@H]1OCC2(CCN(c3nc4[nH]nc(C5(c6cccc(F)c6)CC5)c4c(=O)[nH]3)CC2)[C@@H]1N` [Example 293, 6-((3S,4S)-4-amino-3-methyl-2-oxa-8-azaspiro[4.5]decan-8-yl)-3-(1-(3-fluorophenyl)cyclopropyl)-1,5-dihydro-4H-pyrazolo[3,4-d]pyrimidin-4-one] fall in the same range of IC50: 0.02 to 0.06 µM for the first, 0.02 to 0.06 µM for the second.

`COc1cc(F)cc(C2(c3n[nH]c4nc(N5CCC6(CC5)CO[C@@H](C)[C@H]6N)[nH]c(=O)c34)CC2)c1` [Example 288, 6-((3S,4S)-4-amino-3-methyl-2-oxa-8-azaspiro[4.5]decan-8-yl)-3-(1-(3-fluoro-5-methoxyphenyl)cyclopropyl)-1,5-dihydro-4H-pyrazolo[3,4-d]pyrimidin-4-one] and `COc1cc(C2(c3n[nH]c4nc(N5CCC6(CC5)CO[C@@H](C)[C@H]6N)[nH]c(=O)c34)CC2)ccc1F` [Example 289, 6-((3S,4S)-4-amino-3-methyl-2-oxa-8-azaspiro[4.5]decan-8-yl)-3-(1-(4-fluoro-3-methoxyphenyl)cyclopropyl)-1,5-dihydro-4H-pyrazolo[3,4-d]pyrimidin-4-one] cannot be ordered by IC50: over 0.06 µM for the first, over 0.06 µM for the second.

`C[C@@H]1OCC2(CCN(c3nc4[nH]nc(C5(c6cccc(C#N)c6)CC5)c4c(=O)[nH]3)CC2)[C@@H]1N` [Example 290, 3-(1-(6-((3S,4S)-4-amino-3-methyl-2-oxa-8-azaspiro[4.5]decan-8-yl)-4-oxo-4,5-dihydro-1H-pyrazolo[3,4-d]pyrimidin-3-yl)cyclopropyl)benzonitrile] and `C[C@@H]1OCC2(CCN(c3nc4[nH]nc(C5(c6cccc(C(F)(F)F)c6)CC5)c4c(=O)[nH]3)CC2)[C@@H]1N` [Example 297, 6-((3S,4S)-4-amino-3-methyl-2-oxa-8-azaspiro[4.5]decan-8-yl)-3-(1-(3-(trifluoromethyl)phenyl)cyclopropyl)-1,5-dihydro-4H-pyrazolo[3,4-d]pyrimidin-4-one] fall in the same range of IC50: 0.02 to 0.06 µM for the first, 0.02 to 0.06 µM for the second.

First: C[C@@H]1OCC2(CCN(c3nc4[nH]nc(C5(c6ccc(F)cc6)CC5)c4c(=O)[nH]3)CC2)[C@@H]1N [Example 292, 6-((3S,4S)-4-amino-3-methyl-2-oxa-8-azaspiro[4.5]decan-8-yl)-3-(1-(4-fluorophenyl)cyclopropyl)-1,5-dihydro-4H-pyrazolo[3,4-d]pyrimidin-4-one]
Second: C[C@@H]1OCC2(CCN(c3nc4[nH]nc(C5(c6ccc(C(F)(F)F)cc6)CC5)c4c(=O)[nH]3)CC2)[C@@H]1N [Example 296, 6-((3S,4S)-4-amino-3-methyl-2-oxa-8-azaspiro[4.5]decan-8-yl)-3-(1-(4-(trifluoromethyl)phenyl)cyclopropyl)-1,5-dihydro-4H-pyrazolo[3,4-d]pyrimidin-4-one]
The IC50 of the first is lower: 0.02 to 0.06 µM for the first, over 0.06 µM for the second.

Compound `C[C@@H]1OCC2(CCN(c3nc4[nH]nc(C5(c6ccccc6F)CC5)c4c(=O)[nH]3)CC2)[C@@H]1N` [Example 294, 6-((3S,4S)-4-amino-3-methyl-2-oxa-8-azaspiro[4.5]decan-8-yl)-3-(1-(2-fluorophenyl)cyclopropyl)-1,5-dihydro-4H-pyrazolo[3,4-d]pyrimidin-4-one] has an IC50 of 0.02 to 0.06 µM.
